Measurements taken from US20080207537A1, “Topical Ungual Formulations” (priority 2005, published 2008).
Blank lines part the entries; values can stand above or below the molecule they belong to.

How the values were obtained:
[1] = pH of the agent solutions; assay type: physicochemical; conditions: for pH of solution prior to application: 5% concentration, solution applied to nail (FIG. 7)
[2] = Redox potential measurement against Ag/AgCl reference electrode; assay type: physicochemical; conditions: for Redox potential: urea-H2O2 with H2O2 content of 15%
[3] = 14C mannitol nail penetration study (nail diffusion cell); assay type: in vitro ADME, human; conditions: single penetration enhancer
Procedure: The single penetration enhancers were made up in the appropriate solvent and spiked with ^14C mannitol (10 μl of the stock ^14C mannitol). When more than one penetration enhancer was applied to the nails, only the last penetration enhancer was spiked with ^14C mannitol prior to nail application. ^14C mannitol with no penetration enhancer was used as a control.
Pre-calibrated nail diffusion cells were assembled with full thickness human nail. The receiver fluid, which consisted of a 20% ethanol/water mixture, was put into the receiver well up to the etched mark on the side arm. A magnetic follower was inserted and the cells were then placed on a magnetic stirrer in a water bath maintained at 32° C. Cells were checked for leakage and air bubbles. […] This was to ensure that no cells contained any residual radioactivity and these readings were also taken as the background for each cell. […]
After taking the background reading (described in the section above) 50 μl of ^3H water (ca. 18000 dpm) was placed on top of the nail in the assembled nail diffusion cell, using a pre-calibrated Gilson pipette. […] This value was used to normalise each nail and, if values of radioactivity were considered too high, then cells were rejected due to leaks. […]

[4] = Terbinafine diffusion study (ChubTur diffusion cell); assay type: in vitro ADME, human
Procedure: Human nail samples (full thickness) of ca. 3 mm diameter were positioned between the two halves of the specifically designed ChubTur™ diffusion cell and clamped together. The receptor compartment was filled with a previously sonicated suitable buffer system to ensure sink conditions and the cells were fixed on a perspex holder mounted on a magnetic stirrer in a water bath maintained at 32° C. The receptor chamber contents were continuously agitated by small PTFE-coated magnetic followers driven by a submersible magnetic stirrer. A known amount of formulation/drug solution was applied to the surface of the nail (infinite dose) and at regular time intervals samples of buffer were taken from the receptor compartment, replaced with fresh receptor medium and assayed for drug content using HPLC.

[5] = Urea-H2O2, H2O2 content 0.0025 % w/w, n = 3
[6] = Urea-H2O2, H2O2 content 0.005 % w/w, n = 3
[7] = Urea-H2O2, H2O2 content 0.025 % w/w, n = 3
[8] = Urea-H2O2, H2O2 content 0.05 % w/w, n = 3
[9] = Urea-H2O2, H2O2 content 0.5 % w/w, n = 3
[10] = Urea-H2O2, H2O2 content 5 % w/w, n = 3
[11] = Urea-H2O2, H2O2 content 10 % w/w, n = 3
[12] = Urea-H2O2, H2O2 content 15 % w/w, n = 3
[13] = Urea-H2O2, H2O2 content 16.25 % w/w, n = 3
[14] = Urea-H2O2, H2O2 content 17.5 % w/w, n = 3
[15] = TA concentration 0.001% w/w, n = 3
[16] = TA concentration 0.005% w/w, n = 3
[17] = TA concentration 0.01% w/w, n = 3
[18] = TA concentration 0.05% w/w, n = 3
[19] = TA concentration 0.1% w/w, n = 3
[20] = TA concentration 2.5% w/w, n = 3
[21] = TA concentration 7.5% w/w, n = 3
[22] = TA concentration 10% w/w, n = 3
[23] = TA concentration 20% w/w, n = 3
[24] = DTT concentration 0.005 % w/w, n = 2
[25] = DTT concentration 0.01 % w/w, n = 2
[26] = DTT concentration 0.05 % w/w, n = 2
[27] = DTT concentration 0.1 % w/w, n = 2
[28] = DTT concentration 1 % w/w, n = 2
[29] = DTT concentration 5 % w/w, n = 2
[30] = DTT concentration 7.5 % w/w, n = 2
[31] = DTT concentration 10 % w/w, n = 2
[32] = H2O2 concentration 0.005 % w/w, n = 3
[33] = H2O2 concentration 0.01 % w/w, n = 3
[34] = H2O2 concentration 0.05 % w/w, n = 3
[35] = H2O2 concentration 0.1 % w/w, n = 3
[36] = H2O2 concentration 1 % w/w, n = 3
[37] = H2O2 concentration 10 % w/w, n = 3
[38] = H2O2 concentration 20 % w/w, n = 3
[39] = H2O2 concentration 30 % w/w, n = 3
[40] = H2O2 concentration 32.5 % w/w, n = 3
[41] = H2O2 concentration 35 % w/w, n = 3

Compound: O=C(O)CO [Glycolic acid]
- Mean pH ([1]; 0.5M concentration, n = 3): 2.03
- Mean Redox Potential ([2]; 0.5M concentration, n = 3): 247.7 mV

Compound: O=C(O)CS [Thioglycolic acid]
- Mean pH ([1]; 0.5M concentration, n = 3): 2.13
- pH of solution prior to application [1]: 2.12
- Mean pH [1, 15]: 2.97
- Mean pH [1, 16]: 3.12
- Mean pH [1, 17]: 3.05
- Mean pH [1, 18]: 2.53
- Mean pH [1, 19]: 2.66
- Mean pH ([1]; TA concentration 1% w/w, n = 3): 2.23
- Mean pH [1, 20]: 1.71
- Mean pH ([1]; TA concentration 5% w/w, n = 3): 1.85
- Mean pH [1, 21]: 1.76
- Mean pH [1, 22]: 1.83
- Mean pH [1, 23]: 1.61
- Mean Redox Potential ([2]; 0.5M concentration, n = 3): −132.8 mV
- Mean Redox Potential ([2]; 5% TA solution, approximate pH 2 (adjusted using NaOH), n = 3): −70.4
- Mean Redox Potential ([2]; 5% TA solution, approximate pH 3 (adjusted using NaOH), n = 3): −133.1
- Mean Redox Potential ([2]; 5% TA solution, approximate pH 4 (adjusted using NaOH), n = 3): −166.7
- Mean Redox Potential ([2]; 5% TA solution, approximate pH 5 (adjusted using NaOH), n = 3): −179.5
- Mean Redox Potential ([2]; 5% TA solution, approximate pH 6 (adjusted using NaOH), n = 3): −192.9
- Mean Redox Potential ([2]; 5% TA solution, approximate pH 8 (adjusted using NaOH), n = 3): −272.3
- Mean Redox Potential ([2]; 5% TA solution, approximate pH 10 (adjusted using NaOH), n = 3): −386.5
- Mean Redox Potential ([2]; 5% TA solution, approximate pH 11 (adjusted using NaOH), n = 3): −433.8
- Mean Redox Potential [2, 15]: −47.7
- Mean Redox Potential [2, 16]: −56.6
- Mean Redox Potential [2, 17]: −67.5
- Mean Redox Potential [2, 18]: −85.6
- Mean Redox Potential [2, 19]: −97.4
- Mean Redox Potential ([2]; TA concentration 1% w/w, n = 3): −119.8
- Mean Redox Potential [2, 20]: −126.5
- Mean Redox Potential ([2]; TA concentration 5% w/w, n = 3): −131.5
- Mean Redox Potential [2, 21]: −132.7
- Mean Redox Potential [2, 22]: −132.8
- Mean Redox Potential [2, 23]: −128.7
- permeation of 14C mannitol through full thickness human nail ([3]; Saturated TA (50%), rank among the enhancers (FIG. 2)): best penetration enhancer of mannitol
- permeation of 14C mannitol through full thickness human nail ([3]; TA 5%, compared to DTT (FIG. 2)): drop below that of the DTT

Compound: CC12CCC(CC1)C(C)(C)O2 [Cineol]
- Mean pH ([1]; 0.5M concentration, n = 3): 5.91
- Mean Redox Potential ([2]; 0.5M concentration, n = 3): 67.2 mV

Compound: N.O=C(O)CS [Ammonium thioglycolate]
- Mean pH ([1]; 0.5M concentration, n = 3): 6.29
- Mean Redox Potential ([2]; 0.5M concentration, n = 3): −235.9 mV

Compound: O[C@@H](CS)[C@@H](O)CS (racemic) [DTT, 1,4-dithio-DL-threitol]
- Mean pH ([1]; 0.5M concentration, n = 3): 2.64
- Mean pH [1, 24]: 8.07
- Mean pH [1, 25]: 8.00
- Mean pH [1, 26]: 7.80
- Mean pH [1, 27]: 7.59
- Mean pH [1, 28]: 7.01
- Mean pH [1, 29]: 6.20
- Mean pH [1, 30]: 6.24
- Mean pH [1, 31]: 5.69
- Mean Redox Potential ([2]; 0.5M concentration, n = 3): −241.0 mV
- Mean Redox Potential [2, 24]: −122.7
- Mean Redox Potential [2, 25]: −134.9
- Mean Redox Potential [2, 26]: −169.19
- Mean Redox Potential [2, 27]: −189.65
- Mean Redox Potential [2, 28]: −185.75
- Mean Redox Potential [2, 29]: −201.25
- Mean Redox Potential [2, 30]: −209.65
- Mean Redox Potential [2, 31]: −193.1

Compound: OO [Hydrogen peroxide]
- Mean pH ([1]; 0.5M concentration, n = 3): 6.21
- Mean pH [1, 32]: 7.56
- Mean pH [1, 33]: 7.46
- Mean pH [1, 34]: 6.78
- Mean pH [1, 35]: 6.71
- Mean pH [1, 36]: 6.17
- Mean pH [1, 37]: 3.79
- Mean pH [1, 38]: 3.16
- Mean pH [1, 39]: 2.64
- Mean pH [1, 40]: 2.54
- Mean pH [1, 41]: 2.55
- Mean Redox Potential ([2]; 0.5M concentration, n = 3): 277.3 mV
- Mean Redox Potential [2, 32]: 142.3
- Mean Redox Potential [2, 33]: 153.0
- Mean Redox Potential [2, 34]: 200.4
- Mean Redox Potential [2, 35]: 193.5
- Mean Redox Potential [2, 36]: 231.6
- Mean Redox Potential [2, 37]: 357.2
- Mean Redox Potential [2, 38]: 402.8
- Mean Redox Potential [2, 39]: 430.4
- Mean Redox Potential [2, 40]: 437.9
- Mean Redox Potential [2, 41]: 444.5

Compound: O=C([O-])CS.O=C([O-])CS.[Ca+2] [Calcium thioglycolate]
- Mean pH ([1]; 0.5M concentration, n = 3): 11.74
- pH of solution prior to application [1]: 11.43
- Mean Redox Potential ([2]; 0.5M concentration, n = 3): −531.3 mV

Compound: Cl.N[C@@H](CS)C(=O)O.O [Cysteine, L-Cysteine hydrochloride hydrate]
- Mean Redox Potential ([2]; 0.5M concentration, n = 3): −79.3 mV

Compound: O=C(O)C(=O)O [Oxalic acid]
- Mean pH ([1]; 0.5M concentration, n = 3): 1.33
- Mean Redox Potential ([2]; 0.5M concentration, n = 3): 254.8 mV

Compound: O=S(=O)([O-])OOS(=O)(=O)[O-].[K+].[K+] [Potassium persulphate]
- Mean pH ([1]; 0.5M concentration, n = 3): 2.83
- Mean Redox Potential ([2]; 0.5M concentration, n = 3): 402.5 mV

Compound: O=C([O-])CS.[Na+] [Sodium thioglycolate]
- Mean pH ([1]; 0.5M concentration, n = 3): 6.90
- Mean Redox Potential ([2]; 0.5M concentration, n = 3): −281.7 mV

More lines, now with the values ahead:

- Mean pH ([1]; 0.5M concentration, n = 3): 2.72
- Mean pH [1, 5]: 6.07
- Mean pH [1, 6]: 6.17
- Mean pH [1, 7]: 6.56
- Mean pH [1, 8]: 6.81
- Mean pH [1, 9]: 5.31
- Mean pH [1, 10]: 5.10
- Mean pH [1, 11]: 4.23
- Mean pH [1, 12]: 4.04
- Mean pH [1, 13]: 3.87
- Mean pH [1, 14]: 3.33
- Mean Redox Potential ([2]; 0.5M concentration, n = 3): 349.7 mV
- Mean Redox Potential [2, 5]: 189.4 mV
- Mean Redox Potential [2, 6]: 191.3 mV
- Mean Redox Potential [2, 7]: 199.5 mV
- Mean Redox Potential [2, 8]: 208.1 mV
- Mean Redox Potential [2, 9]: 293.6 mV
- Mean Redox Potential [2, 10]: 372.3 mV
- Mean Redox Potential [2, 11]: 377.9 mV
- Mean Redox Potential [2, 12]: 380.3 mV
- Mean Redox Potential [2, 13]: 382.9 mV
- Mean Redox Potential [2, 14]: 382.3 mV
- Redox potential ([2]; approximate pH 2 (adjusted using HCl and NaOH), n = 3): 459.8 mV
- Redox potential ([2]; approximate pH 4 (adjusted using HCl and NaOH), n = 3): 334.1 mV
- Redox potential ([2]; approximate pH 6 (adjusted using HCl and NaOH), n = 3): 284.0 mV
- Redox potential ([2]; approximate pH 8 (adjusted using HCl and NaOH), n = 3): 194.2 mV
- Redox potential ([2]; approximate pH 10 (adjusted using HCl and NaOH), n = 3): 16.1 mV
Compound: NC(N)=O.OO [Urea hydrogen Peroxide, Urea hydrogen peroxide addition compound]

- Mean pH ([1]; 0.5M concentration, n = 3): 5.67
- Mean Redox Potential ([2]; 0.5M concentration, n = 3): 8.6 mV
Compound: Oc1cccc(O)c1 [Resorcinol]

- Mean pH ([1]; 0.5M concentration, n = 3): 3.54
- Mean Redox Potential ([2]; 0.5M concentration, n = 3): 114.1 mV
Compound: O=C(O)/C=C/c1ccc(O)cc1 [p-coumaric acid]

- amount of drug penetrated the nail ([4]; nails soaked in 50:50 ethanol/water (control) for 20 h before drug, after 214 h): 44±13 μg per cm^2
- amount of drug penetrating the nail ([4]; pre-treatment with TA then urea-H2O2 for 30 min): less than 10 μg per cm^2
- amount of drug penetrating the nail ([4]; pre-treatment with TA then urea-H2O2 for 1 h): less than 10 μg per cm^2
- amount of terbinafine penetrating the human nail ([4]; pre-treatment with TA then urea-H2O2 for up to 20 h each, after 315 h): 3329±1842 μg per cm^2
- amount of drug penetrating the nail ([4]; pre-treatment with thioglycolic acid alone): 861±135 μg per cm^2
- amount of drug penetrating the nail ([4]; pre-treatment with urea-hydrogen peroxide alone): 47±33 μg per cm^2
- effect of pre-treatment on the amount of drug penetrating the nail ([4]; pre-treatment with urea-hydrogen peroxide versus control, p>0.05, ANOVA): no significant effect
- amount of drug penetrating the nail ([4]; thioglycolic acid and urea-H2O2 applied sequentially prior to terbinafine, after 219 h): 2308±1332 μg per cm^2
Compound: CN(C/C=C/C#CC(C)(C)C)Cc1cccc2ccccc12 [terbinafine]

- Mean pH ([1]; 0.5M concentration, n = 3): 6.28
- Mean Redox Potential ([2]; 0.5M concentration, n = 3): 53.4 mV
Compound: O=c1cc[nH]c(=S)[nH]1 [Thiouracil]
